Test results reported in ChEMBL document CHEMBL4304815, “Photoswitchable Inhibitor of the Calcium Channel TRPV6” (ACS Med Chem Lett, 2019).
Activity calls are given as the source filed them. The rule behind the calls is not given here.

Legend:
[1] = Half life of the compound in DMSO assessed as thermal isomerization by measuring E isomer level at 500 uM incubated for 48 hrs under dark condition by UV-Vis spectroscopy; type: physicochemical
[2] = molecular target: T1, Transient receptor potential cation channel subfamily V member 6 (Homo sapiens) (UniProt Q9H1D0); test: Inhibition of human TRPV6 expressed in HEK293 cells assessed as reduction in Cd2+ influx at 10 uM preincubated for 5 mins followed by CdCl2 addition using 365 nm UV-light irradiated compound by calcium-5 fluorescence dye-based FLIPR assay; type: cell-based
T1 sequence (whole entry): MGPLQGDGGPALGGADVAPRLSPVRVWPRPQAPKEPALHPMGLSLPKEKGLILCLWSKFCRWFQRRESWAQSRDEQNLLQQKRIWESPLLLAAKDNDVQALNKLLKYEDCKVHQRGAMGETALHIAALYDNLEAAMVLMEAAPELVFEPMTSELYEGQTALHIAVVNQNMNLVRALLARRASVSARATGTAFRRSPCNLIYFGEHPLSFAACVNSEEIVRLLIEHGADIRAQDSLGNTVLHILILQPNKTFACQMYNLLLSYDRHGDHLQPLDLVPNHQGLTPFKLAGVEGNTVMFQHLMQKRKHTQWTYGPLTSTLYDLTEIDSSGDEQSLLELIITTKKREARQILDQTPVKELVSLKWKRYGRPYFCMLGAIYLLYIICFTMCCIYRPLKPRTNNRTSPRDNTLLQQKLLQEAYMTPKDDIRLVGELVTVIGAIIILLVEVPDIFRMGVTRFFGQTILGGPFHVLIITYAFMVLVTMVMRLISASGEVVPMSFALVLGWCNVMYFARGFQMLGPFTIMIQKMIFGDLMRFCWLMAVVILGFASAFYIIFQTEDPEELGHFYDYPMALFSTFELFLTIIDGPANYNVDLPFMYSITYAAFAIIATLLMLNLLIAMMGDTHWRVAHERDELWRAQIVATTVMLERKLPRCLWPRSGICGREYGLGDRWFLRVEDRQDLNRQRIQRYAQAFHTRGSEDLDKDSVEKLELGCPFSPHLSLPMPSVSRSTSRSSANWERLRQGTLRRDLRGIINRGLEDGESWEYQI

[3] = Solubility of the compound in DMSO/buffer at >10 uM; type: physicochemical
[4] = Stability in DMSO assessed as parent compound remaining at 500 uM incubated for 48 hrs in dark by RP-UHPLC analysis; type: physicochemical; settings: read-out: Stability
[5] = Stability in DMSO assessed as parent compound remaining at 500 uM irradiated with UV light at 365 nm for 5 mins measured immediately by RP-UHPLC analysis
[6] = Drug isomerization in DMSO assessed as Z isomer level at 500 uM incubated for 48 hrs in dark by RP-UHPLC analysis
[7] = Drug isomerization in DMSO assessed as Z isomer level at 500 uM irradiated with UV light at 365 nm for 5 mins measured immediately by RP-UHPLC analysis
[8] = Drug isomerization in DMSO assessed as Z isomer level at 500 uM irradiated with UV light at 365 nm for 5 mins measured immediately by UV-vis spectra analysis
[9] = molecular target: T1, Transient receptor potential cation channel subfamily V member 6 (Homo sapiens); test: Inhibition of human TRPV6 expressed in HEK293 cells assessed as reduction of Cd2+ influx at 10 uM preincubated for 5 mins followed by CdCl2 addition measured under dark state by calcium-5 fluorescence dye-based FLIPR assay relative to control; type: cell-based
[10] = molecular target: T2, Transient receptor potential cation channel subfamily V member 6 (Homo sapiens, UniProt Q9H1D0); test: Inhibition of human TRPV6 expressed in HEK293 cells assessed as reduction of Cd2+ influx preincubated for 5 mins followed by CdCl2 addition measured under dark state by calcium-5 fluorescence dye-based FLIPR assay; type: cell-based
T2 sequence (Q9H1D0 whole entry): T1 sequence (whole entry)

[11] = molecular target: T1, Transient receptor potential cation channel subfamily V member 6 (Homo sapiens); test: Inhibition of human peTFP-C1-TRPV6 expressed in HEK293 cells assessed as decrease in whole cell inward calcium current density at 10 uM at 50 mV holding potential by patch clamp assay; type: cell-based
[12] = Drug isomerization in DMSO assessed as Z isomer level by measuring maximum absorbance at 500 uM irradiated with UV light at 365 nm for 5 mins measured immediately by UV-vis spectra analysis
[13] = molecular target: T2, Transient receptor potential cation channel subfamily V member 6; test: Inhibition of human TRPV6 expressed in HEK293 cells assessed as reduction in Cd2+ influx preincubated for 5 mins followed by CdCl2 addition using 365 nm UV-light irradiated compound by calcium-5 fluorescence dye-based FLIPR assay; type: cell-based
[14] = Thermal isomerization of the compound in DMSO assessed as E isomer level at 500 uM preincubated for 48 hrs under dark condition followed by irradiated with UV light at 365 nm for 5 mins and subsequent irradiation with UV light at 470 nm for 5 mins measured immediately by UV-Vis spectroscopy
[15] = molecular target: T1, Transient receptor potential cation channel subfamily V member 6 (Homo sapiens); test: Inhibition of human YFP-fused TRPV6 expressed in HEK293 cells assessed as decrease in whole cell inward calcium current density at 10 uM at 50 mV holding potential under 365 nm UV-light irradiation by patch clamp assay; type: cell-based
[16] = molecular target: T1, Transient receptor potential cation channel subfamily V member 6 (Homo sapiens); test: Inhibition of human YFP-fused TRPV6 expressed in HEK293 cells assessed as decrease in whole cell inward calcium current density at 10 uM at 50 mV holding potential pre-irradiated with 365 nm UV-light followed by […] irradiation by patch clamp assay; type: cell-based

Structure (SMILES)	half-life at 500 µM [1] [h]	inhibition [2]	solubility [3]	remaining at 48 h, 500 µM [4] [%]	inhibition [9] [%]	Stability [5] [%]	Z isomer level [6] [%]	Z isomer level [7] [%]	Drug metabolism [8]	Drug metabolism [14]	further results
c1ccc(/N=N\c2ccc(N3CCN([C@H]4CC[C@@H](c5ccccc5)CC4)CC3)cn2)cc1	0.137	Active									
c1ccc(/N=N/c2ccc(N3CCN([C@H]4CC[C@@H](c5ccccc5)CC4)CC3)cc2)cc1			Insoluble	93		93	7	7	Metabolite not detected		
c1ccc([C@H]2CC[C@@H](N3CCN(c4ccc(/N=N\c5cccnc5)cc4)CC3)CC2)cc1										Metabolite detected	
c1ccc([C@H]2CC[C@@H](N3CCN(c4ccc(/N=N/c5cccnc5)cc4)CC3)CC2)cc1			Insoluble	100		100	0	0	Metabolite not detected		
c1ccc(/N=N\c2ccc(N3CCN([C@H]4CC[C@@H](c5ccccc5)CC4)CC3)cc2)cc1										Metabolite detected	

Continued, in another order:

half-life at 500 µM [1] [h]	inhibition [2]	solubility [3]	remaining at 48 h, 500 µM [4] [%]	inhibition [9] [%]	Structure (SMILES)	Stability [5] [%]	Z isomer level [6] [%]	Z isomer level [7] [%]	Drug metabolism [8]	Drug metabolism [14]	further results
		Insoluble	97	13	c1ccc(/N=N/c2ccc(CN3CCN([C@H]4CC[C@@H](c5ccccc5)CC4)CC3)cc2)cc1	25	3	75			IC50 [10]: > 10000 nM; inhibition [11]: Active; Activity [12]: 400 to 500 nm
3.7	Active				c1ccc(/N=N\c2ccc(CN3CCN([C@H]4CC[C@@H](c5ccccc5)CC4)CC3)cn2)cc1						IC50 [13]: 600 nM
		Insoluble	100	30	c1ccc(/N=N/c2ccc(N3CCN([C@H]4CC[C@@H](c5ccccc5)CC4)CC3)cn2)cc1	88	0	12	Metabolite not detected		
93.6	Active				c1ccc(/N=N\c2ccc(CN3CCN([C@H]4CC[C@@H](c5ccccc5)CC4)CC3)cc2)cc1					Metabolite detected	IC50 [13]: 1700 nM; inhibition [15]: Active; inhibition [16]: Active
		Insoluble	100	70	c1ccc(/N=N/c2ccc(CN3CCN([C@H]4CC[C@@H](c5ccccc5)CC4)CC3)cn2)cc1	50	0	50			IC50 [10]: 600 nM; Activity [12]: 400 to 500 nm
